# Data as given in US9757369B2, “Heterocyclic GSK-3 allosteric modulators” (Consejo Superior de Investigaciones Cientificas (CSIC), priority 2011, dated 2017).
# “Also recorded” adds a separate entry of the source.
# Test system: GSK-3β
# Test: Study of the inhibition of GSK-3β as a function of enzyme-inhibitor pre-incubation time
# Assay type: biochemical, human
# Conditions: different enzyme incubation times, two inhibitor concentrations
# Procedure: In order to determine the binding mode of these compounds, different kinetic studies were performed, varying the reaction times and the ATP concentration and the substrate concentration.
row,SMILES,reversibility of enzyme inhibition
1,"CCCCCCCCCCCC(=O)NNC(=O)c1c(O)c2ccccc2n(CC)c1=O [Compound 6, N′-Dodecanoyl-1-ethyl-4-hydroxy-2-oxo-1,2-dihydroquinoline-3-carbohydrazide]",reversible inhibitor

# Test system: RAW 264.7 cells
# Test: Anti-inflammatory activity: nitrite production (Griess method) in LPS-stimulated RAW 264.7 cells
# Assay type: cell-based
# Conditions: 1.25, 2.5, 5 and 10 μM; 1 h pre-treatment, 0.4 μg/ml LPS 24 h
# Procedure: A monolayer culture of RAW 264.7 cells growing in 96-well plates is used. The cells are treated for 1 h with the compounds evaluated. Subsequently, the inflammatory activity is stimulated with 0.4 µg/ml of LPS for 24 h. Once this time has elapsed, the production of nitrites is evaluated by means of the Griess method. Briefly, 50 µl of supernatant are transferred to 96-well plates and 50 µl of Griess reagent are added. The mixture is incubated for 15 minutes at room temperature and the absorbance at 520 nm is measured in a microplate reader.
row,SMILES,decrease in nitrite release
1,"CCCCCCCCCCCC(=O)NNC(=O)c1c(O)c2ccccc2n(CC)c1=O [Compound 6, N′-Dodecanoyl-1-ethyl-4-hydroxy-2-oxo-1,2-dihydroquinoline-3-carbohydrazide]",dose-dependent effect on the decrease in nitrite release; also recorded: decrease in inflammatory activity

# Target: GSK-3β (Homo sapiens, UniProt P49841)
# Test: Kinetic study varying ATP concentration (ADP-Glo Kinase Assay, double-reciprocal plot)
# Assay type: biochemical
# Conditions: ATP 1 to 50 μM, GS-2 12.5 μM, inhibitor 5 to 10 μM
# Procedure: The ATP concentrations were varied from 1 to 50 µM, whereas the concentration of the GS-2 peptide was kept constant at 12.5 µM. The concentrations of inhibitor (compound 6) used are shown in the plot.
# The kinetic studies conducted by varying the ATP concentration from 1 to 50 µM, and the concentration of inhibitor 6 from 5 to 10 µM, were performed using the ADP-Glo™ Kinase Assay.
row,SMILES,mode of inhibition versus ATP
1,"CCCCCCCCCCCC(=O)NNC(=O)c1c(O)c2ccccc2n(CC)c1=O [Compound 6, N′-Dodecanoyl-1-ethyl-4-hydroxy-2-oxo-1,2-dihydroquinoline-3-carbohydrazide]",non-ATP-competitive inhibitor

# Target: recombinant human GSK3 enzyme (GSK-3β) (Homo sapiens, UniProt P49841)
# Test: Measurement of the inhibition of GSK-3β (Kinase-Glo luminometric assay)
# Assay type: biochemical
# Conditions: 25 μM substrate, 1 μM ATP, 30 min at 30 °C
# Procedure: The enzyme inhibition assays were performed using the luminometric methodology of Kinase-Glo®. […] The luminescent kinase kit (catalogue no. V6711) was obtained from Promega. The ATP and the other reagents were purchased from Sigma-Aldrich (St. Louis, Mo.).
# The assays were performed in buffer using 96-well plates. 10 µl of the compound to be assayed (dissolved in DMSO at a concentration of 1 mM, and, in turn, dissolved in buffer to the concentration necessary for the experiment) and 10 µl (20 ng) of the enzyme are added to each well, followed by 20 µl of buffer containing 25 µM of the substrate and 1 µM of ATP. […] Following a half-hour incubation at 30° C., the enzymatic reaction is stopped with 40 µl of the Kinase-Glo® reagent. The luminescence is measured after ten minutes, using a POLARstar Optima multimode reader. The activity is proportional to the difference between the total ATP and the ATP consumed. The inhibitory activities were calculated as a function of the maximum activity, measured in the absence of inhibitor.
row,SMILES,IC50
1,"CCCCCCCC(=O)NNC(=O)c1c(O)c2ccccc2n(C)c1=O [Compound 3, 4-Hydroxy-1-methyl-N′-octanoyl-2-oxo-1,2-dihydroquinoline-3-carbohydrazide]",8.67 ± 0.4 µM
2,"CCCCCCCCCCCC(=O)NNC(=O)c1c(O)c2ccccc2n(C)c1=O [Compound 4, N′-Dodecanoyl-4-hydroxy-1-methyl-2-oxo-1.2-dihydroquinoline-3-carbohydrazide]",7.35 ± 0.23 µM
3,"CCCCCCCCCCCC(=O)NNC(=O)c1c(O)c2ccccc2n(CC)c1=O [Compound 6, N′-Dodecanoyl-1-ethyl-4-hydroxy-2-oxo-1,2-dihydroquinoline-3-carbohydrazide]",2.85 ± 0.36 µM
4,"CCCCCCCCCCCC(=O)NNC(=O)c1c(O)c2ccccc2n(CC2CC2)c1=O [Compound 45, 1-(cyclopropylmethyl)-N′-dodecanoyl-4-hydroxy-2-oxo-1,2-dihydroquinoline-3-carbohydrazide]",5.25 ± 0.58 µM
5,"CCCCCCCCCCCC(=O)NNC(=O)c1c(O)c2ccccc2n(Cc2ccccc2)c1=O [Compound 46, 1-Benzyl-N′-dodecanoyl-4-hydroxy-2-oxo-1,2-dihydroquinoline-3-carbohydrazide]",5.51 ± 0.27 µM
6,"CCCCCCCC(=O)NNC(=O)c1c(O)c2cc(Br)ccc2n(C)c1=O [Compound 49, 6-Bromo-4-hydroxy-1-methyl-N′-octanoyl-2-oxo-1,2-dihydroquinoline-3-carbohydrazide]",6.28 ± 0.33 µM
7,"CCCCCCCCCCCC(=O)NNC(=O)c1c(O)c2cc(Br)ccc2n(C)c1=O [Compound 50, 6-Bromo-N′-dodecanoyl-4-hydroxy-1-methyl-2-oxo-1,2-dihydroquinoline-3-carbohydrazide]",4.28 ± 0.5 µM
8,"CCCCCCCC(=O)NNC(=O)c1c(O)c2cc(Br)ccc2n(CC)c1=O [Compound 51, 6-Bromo-1-ethyl-4-hydroxy-N′-octanoyl-2-oxo-1,2-dihydroquinoline-3-carbohydrazide]",7.34 ± 0.2 µM
9,"CCCCCCCCCCCC(=O)NNC(=O)c1c(O)c2cc(Br)ccc2n(CC)c1=O [Compound 52, 6-Bromo-N′-dodecanoyl-1-ethyl-4-hydroxy-2-oxo-1,2-dihydroquinoline-3-carbohydrazide]",2.01 ± 0.18 µM
10,"CCCCCCCC(=O)NNC(=O)c1c(O)c2cc(Cl)ccc2n(C)c1=O [Compound 53, 6-Chloro-4-hydroxy-1-methyl-N′-octanoyl-2-oxo-1,2-dihydroquinoline-3-carbohydrazide]",8.48 ± 0.3 µM
11,"CCCCCCCCCCCC(=O)NNC(=O)c1c(O)c2cc(Cl)ccc2n(C)c1=O [Compound 54, 6-Chloro-N′-dodecanoyl-4-hydroxy-1-methyl-2-oxo-1,2-dihydroquinoline-3-carbohydrazide]",5.95 ± 0.49 µM
12,"CCCCCCCC(=O)NNC(=O)c1c(O)c2cc(Cl)ccc2n(CC)c1=O [Compound 55, 6-Chloro-1-ethyl-4-hydroxy-N′-octanoyl-2-oxo-1,2-dihydroquinoline-3-carbohydrazide]",9.42 ± 0.23 µM
13,"CCCCCCCCCCCC(=O)NNC(=O)c1c(O)c2cc(Cl)ccc2n(CC)c1=O [Compound 56, 6-Chloro-N′-dodecanoyl-1-ethyl-4-hydroxy-2-oxo-1,2-dihydroquinoline-3-carbohydrazide]",3.18 ± 0.28 µM
14,"CCCCCCCC(=O)NNC(=O)c1c(O)c2ccc(Cl)cc2n(C)c1=O [Compound 57, 7-Chloro-4-hydroxy-1-methyl-N′-octanoyl-2-oxo-1,2-dihydroquinoline-3-carbohydrazide]",6.66 ± 0.29 µM
15,"CCCCCCCCCCCC(=O)NNC(=O)c1c(O)c2ccc(Cl)cc2n(C)c1=O [Compound 58, 7-Chloro-N′-dodecanoyl-4-hydroxy-1-methyl-2-oxo-1,2-dihydroquinoline-3-carbohydrazide]",4.03 ± 0.19 µM
16,"CCCCCCCC(=O)NNC(=O)c1c(O)c2ccc(Cl)cc2n(CC)c1=O [Compound 59, 7-Chloro-1-ethyl-4-hydroxy-N′-octanoyl-2-oxo-1,2-dihydroquinoline-3-carbohydrazide]",4.83 ± 0.23 µM
17,"CCCCCCCCCCCC(=O)NNC(=O)c1c(O)c2ccc(Cl)cc2n(CC)c1=O [Compound 60, 7-Chloro-N′-dodecanoyl-1-ethyl-4-hydroxy-2-oxo-1,2-dihydroquinoline-3-carbohydrazide]",2.48 ± 0.26 µM
18,"CCCCCCCC(=O)NNC(=O)c1c(O)c2ccc(Cl)cc2n(Cc2ccccc2)c1=O [Compound 61, 1-Benzyl-7-chloro-4-hydroxy-N′-octanoyl-2-oxo-1,2-di hydroquinoline-3-carbohydrazide]",5.96 ± 0.17 µM
19,"CCCCCCCCCCCC(=O)NNC(=O)c1c(O)c2ccc(Cl)cc2n(Cc2ccccc2)c1=O [Compound 62, 1-Benzyl-7-chloro-N′-dodecanoyl-4-hydroxy-2-oxo-1,2-dihydroquinoline-3-carbohydrazide]",5.99 ± 0.22 µM
20,"CCCCCCCCCCCC(=O)N(Cc1ccccc1)NC(=O)c1c(O)c2ccccc2n(Cc2ccccc2)c1=O [Compound 63, N′-1-dibenzyl-N′-dodecanoyl-4-hydroxy-2-oxo-1,2-dihydroquinoline-3-carbohydrazide]",6.84 ± 0.51 µM

# Test system: GSK-3β
# Test: Kinetic study varying GS-2 peptide substrate concentration (double-reciprocal plot)
# Assay type: biochemical, human
# Conditions: GS-2 15.5 to 100 μM, ATP 1 μM, inhibitor 5 to 10 μM
# Procedure: The GS-2 concentrations were varied from 15.5 to 100 µM, whereas the ATP concentration was kept constant at 1 µM. The concentrations of inhibitor (compound 6) used are shown in the plot.
# On the other hand, we also studied the dependence of GSK-3β activity in the presence of these inhibitors as a function of the concentration of the substrate, the GS-2 peptide, used in the assays.
row,SMILES,mode of inhibition versus substrate GS-2
1,"CCCCCCCCCCCC(=O)NNC(=O)c1c(O)c2ccccc2n(CC)c1=O [Compound 6, N′-Dodecanoyl-1-ethyl-4-hydroxy-2-oxo-1,2-dihydroquinoline-3-carbohydrazide]",substrate-non-competitive inhibitor
